Earlier results in US20210220374A1, “METHODS OF TREATING TE[…]” (Clarus Therapeutics, Inc., priority 2013, published 2021).

Details: cited from earlier work

Row | SMILES | Liver toxicity (oral therapy) | Serum half-life of testosterone in men (in vivo) [min]
1 | C[C@]12CCC(=O)C=C1CC[C@@H]1[C@@H]2CC[C@@]2(C)[C@H]1CC[C@]2(C)O [methyltestosterone] | significant occurrence of liver toxicity | –
2 | C[C@]12CC[C@H]3[C@@H](CCC4=CC(=O)CC[C@@]43C)[C@@H]1CC[C@@H]2O [testosterone] | – | 10 to 100
